Measurements taken from US20090029992A1, “SUBSTITUTED PYRAZOLE COMPOUNDS” (priority 2007, published 2009).

Columns and labels:
Format in all cases: biochemical
[1] = molecular target: T1, N-terminal His-tagged human Src (Homo sapiens, UniProt P12931); assay: Src kinase inhibition assay (33P-ATP filter assay)
T1 construct: His (N); purchased Upstate USA Inc, 706 Forest Street, Charlottesville, Va

[2] = molecular target: T2, N-terminal GST-tagged recombinant human Flt3, residues 564-end (Homo sapiens, UniProt P36888); assay: Flt3 kinase inhibition assay (33P-ATP filter assay); conditions: 40 minutes at room temperature
T2 construct: recombinant human Flt3, residues 564-end; GST (N); purchased Upstate USA Inc, 706 Forest Street, Charlottesville, Va
T2 sequence (P36888 564-993 limits assumed): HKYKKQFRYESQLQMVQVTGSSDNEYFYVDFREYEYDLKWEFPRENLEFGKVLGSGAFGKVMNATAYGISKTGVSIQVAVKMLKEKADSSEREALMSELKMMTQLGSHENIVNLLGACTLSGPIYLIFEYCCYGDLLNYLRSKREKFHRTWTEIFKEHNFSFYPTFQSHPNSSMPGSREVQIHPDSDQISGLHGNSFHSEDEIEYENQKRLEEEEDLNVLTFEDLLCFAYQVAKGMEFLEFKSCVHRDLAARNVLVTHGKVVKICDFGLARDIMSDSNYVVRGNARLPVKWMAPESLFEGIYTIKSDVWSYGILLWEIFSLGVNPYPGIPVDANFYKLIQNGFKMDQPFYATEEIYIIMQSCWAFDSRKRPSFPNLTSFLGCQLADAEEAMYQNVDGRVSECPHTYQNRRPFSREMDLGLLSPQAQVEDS
Method in brief: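 Serial compound dilutions incubated 40 min at room temperature with 5-10 mU Flt3 kinase, 50 μM peptide substrate and [γ-33P]ATP/10 mM magnesium acetate, pH 7.0. Phosphoric acid stop, filter capture and scintillation counting; activity compared with uninhibited reactions.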

[3] = molecular target: T3, N-terminal His6-tagged recombinant human KDR, residues 790-end (Homo sapiens, UniProt P35968); assay: KDR kinase inhibition assay (33P-ATP filter assay)
T3 construct: recombinant human KDR, residues 790-end; His6 (N); purchased Upstate USA Inc, 706 Forest Street, Charlottesville, Va
Method in brief: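 Radiometric filter assay: reaction started with Mg acetate (10 mM)/[γ-33P]ATP mix, run 40 min at room temperature in 8 mM MOPS pH 7.0 with 0.2 mM EDTA, MBP substrate (0.33 mg/mL) and recombinant KDR 790-end (5-10 mU). Phosphate incorporation by scintillation counting of P30 filtermats, compared with uninhibited reactions.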

[4] = group with IC50 greater than 100 nM

T1 sequence (P12931 whole entry): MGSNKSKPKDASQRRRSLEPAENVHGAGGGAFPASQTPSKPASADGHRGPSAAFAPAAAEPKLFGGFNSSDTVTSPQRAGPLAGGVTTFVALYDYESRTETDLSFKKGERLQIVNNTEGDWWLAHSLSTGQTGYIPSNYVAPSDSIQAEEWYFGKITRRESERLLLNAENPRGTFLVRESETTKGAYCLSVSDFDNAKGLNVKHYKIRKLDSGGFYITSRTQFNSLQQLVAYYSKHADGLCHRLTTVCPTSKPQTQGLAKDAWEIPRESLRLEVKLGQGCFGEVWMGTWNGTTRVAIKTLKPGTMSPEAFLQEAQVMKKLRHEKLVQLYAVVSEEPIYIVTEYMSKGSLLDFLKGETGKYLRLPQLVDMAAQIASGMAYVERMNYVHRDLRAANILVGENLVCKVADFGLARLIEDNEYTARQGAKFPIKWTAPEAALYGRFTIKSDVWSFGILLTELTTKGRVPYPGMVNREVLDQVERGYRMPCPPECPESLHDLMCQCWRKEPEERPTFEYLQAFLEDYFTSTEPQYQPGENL
T3 sequence (P35968 790-1356 limits assumed): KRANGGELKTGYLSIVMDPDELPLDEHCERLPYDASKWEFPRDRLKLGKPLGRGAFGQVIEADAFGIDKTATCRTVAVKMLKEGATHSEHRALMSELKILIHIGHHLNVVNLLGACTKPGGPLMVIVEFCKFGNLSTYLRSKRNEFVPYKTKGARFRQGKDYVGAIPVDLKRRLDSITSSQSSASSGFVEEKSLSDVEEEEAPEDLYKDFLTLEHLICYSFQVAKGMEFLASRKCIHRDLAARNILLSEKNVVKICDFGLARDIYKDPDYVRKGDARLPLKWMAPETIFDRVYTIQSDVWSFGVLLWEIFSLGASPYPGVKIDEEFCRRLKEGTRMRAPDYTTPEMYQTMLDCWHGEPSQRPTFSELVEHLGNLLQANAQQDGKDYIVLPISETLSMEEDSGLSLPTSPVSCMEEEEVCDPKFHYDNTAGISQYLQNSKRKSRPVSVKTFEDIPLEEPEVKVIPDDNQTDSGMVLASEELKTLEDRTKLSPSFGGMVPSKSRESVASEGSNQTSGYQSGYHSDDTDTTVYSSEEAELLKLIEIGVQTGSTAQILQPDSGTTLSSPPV

IC50 ([1]; 40 minutes at room temperature)	IC50 [2]	IC50 ([3]; 40 minutes at room temperature)	IC50 [1, 4]	IC50 [3, 4]	SMILES
≤ 100 nM	≤ 100 nM	≤ 100 nM	–	–	Cc1cc(Nc2cc(N3CCN(C)CC3)nc(-c3ccc(Cl)cc3)n2)n[nH]1 [Compound 35, 2-(4-chlorophenyl)-N-(5-methyl-1H-pyrazol-3-yl)-6-(4-methylpiperazin-1-yl)pyrimidin-4-amine]
≤ 100 nM	≤ 100 nM	≤ 100 nM	–	–	Cc1cc(Nc2cc(N3CCN(C)CC3)nc(-c3cccc(Cl)c3)n2)n[nH]1 [Compound 36, 2-(3-chlorophenyl)-N-(5-methyl-1H-pyrazol-3-yl)-6-(4-methylpiperazin-1-yl)pyrimidin-4-amine]
≤ 100 nM	≤ 100 nM	≤ 100 nM	–	–	Cc1cc(Nc2cc(N3CCN(C)CC3)nc(-c3ccccc3Cl)n2)n[nH]1 [Compound 37, 2-(2-chlorophenyl)-N-(5-methyl-1H-pyrazol-3-yl)-6-(4-methylpiperazin-1-yl)pyrimidin-4-amine]
≤ 100 nM	≤ 100 nM	≤ 100 nM	–	–	Cc1ccc(-c2nc(Nc3cc(C)[nH]n3)cc(N3CCN(C)CC3)n2)cc1 [Compound 38, N-(5-methyl-1H-pyrazol-3-yl)-6-(4-methylpiperazin-1-yl)-2-p-tolylpyrimidin-4-amine]
≤ 100 nM	≤ 100 nM	≤ 100 nM	–	–	Cc1cccc(-c2nc(Nc3cc(C)[nH]n3)cc(N3CCN(C)CC3)n2)c1 [Compound 39, N-(5-methyl-1H-pyrazol-3-yl)-6-(4-methylpiperazin-1-yl)-2-m-tolylpyrimidin-4-amine]
≤ 100 nM	≤ 100 nM	≤ 100 nM	–	–	Cc1cc(Nc2cc(N3CCN(C)CC3)nc(-c3ccccc3C)n2)n[nH]1 [Compound 40, N-(5-methyl-1H-pyrazol-3-yl)-6-(4-methylpiperazin-1-yl)-2-o-tolylpyrimidin-4-amine]
≤ 100 nM	≤ 100 nM	≤ 100 nM	–	–	COc1ccc(-c2nc(Nc3cc(C)[nH]n3)cc(N3CCN(C)CC3)n2)cc1 [Compound 41, 2-(4-methoxyphenyl)-N-(5-methyl-1H-pyrazol-3-yl)-6-(4-methylpiperazin-1-yl)pyrimidin-4-amine]
≤ 100 nM	≤ 100 nM	≤ 100 nM	–	–	COc1cccc(-c2nc(Nc3cc(C)[nH]n3)cc(N3CCN(C)CC3)n2)c1 [Compound 42, 2-(3-methoxyphenyl)-N-(5-methyl-1H-pyrazol-3-yl)-6-(4-methylpiperazin-1-yl)pyrimidin-4-amine]
≤ 100 nM	≤ 100 nM	≤ 100 nM	–	–	Cc1cc(Nc2cc(N(C)CCN(C)C)nc(-c3cccc(Cl)c3)n2)n[nH]1 [Compound 49, 2-(3-chlorophenyl)-N^4-(2-(dimethylamino)ethyl)-N^4-methyl-N^6-(5-methyl-1H-pyrazol-3-yl)pyrimidine-4,6-diamine]
–	≤ 100 nM	–	≤ 1000 nM	≤ 1000 nM	Cc1cccc(-c2nc(Nc3cc(C)[nH]n3)cc(N(C)CCN(C)C)n2)c1 [Compound 52, N^4-(2-(dimethylamino)ethyl)-N^4-methyl-N^6-(5-methyl-1H-pyrazol-3-yl)-2-m-tolylpyrimidine-4,6-diamine]
≤ 100 nM	≤ 100 nM	–	–	≤ 1000 nM	COc1ccc(-c2nc(Nc3cc(C)[nH]n3)cc(N(C)CCN(C)C)n2)cc1 [Compound 54, N^4-(2-(dimethylamino)ethyl)-2-(4-methoxyphenyl)-N^4-methyl-N^6-(5-methyl-1H-pyrazol-3-yl)pyrimidine-4,6-diamine]
–	≤ 100 nM	–	≤ 1000 nM	≤ 1000 nM	COCCN(C)c1cc(Nc2cc(C)[nH]n2)nc(-c2cccc(Cl)c2)n1 [Compound 62, 2-(3-chlorophenyl)-N^4-(2-methoxyethyl)-N^4-methyl-N^6-(5-methyl-1H-pyrazol-3-yl)pyrimidine-4,6-diamine]
≤ 100 nM	≤ 100 nM	≤ 100 nM	–	–	Cc1cc(Nc2cc(NC3CCOCC3)nc(-c3cccc(N(C)C)c3)n2)n[nH]1 [Compound 74, 2-(3-(dimethylamino)phenyl)-N^4-(5-methyl-1H-pyrazol-3-yl)-N^6-(tetrahydro-2H-pyran-4-yl)pyrimidine-4,6-diamine]
≤ 100 nM	≤ 100 nM	–	–	≤ 1000 nM	Cc1cc(Nc2cc(N3CCN(C)CC3)nc(-c3ccc(C(C)(C)C)cc3)n2)n[nH]1 [Compound 82, 2-(4-tert-butylphenyl)-N-(5-methyl-1H-pyrazol-3-yl)-6-(4-methylpiperazin-1-yl)pyrimidin-4-amine]
≤ 100 nM	≤ 100 nM	≤ 100 nM	–	–	Cc1cc(Nc2cc(N3CCN(C)CC3)nc(-c3ccc(N(C)C)cc3)n2)n[nH]1 [Compound 85, 2-(4-(dimethylamino)prenyl)-N-(b-methyl-1H-pyrazol-3-yl)-6-(4-methylpiperazin-1-yl)pyrimidin-4-amine]
≤ 100 nM	≤ 100 nM	–	–	≤ 1000 nM	Cc1cc(Nc2cc(N3CCN(C)CC3)nc(-c3cccnc3)n2)n[nH]1 [Compound 89, N-(5-methyl-1H-pyrazol-3-yl)-6-(4-methylpiperazin-1-yl)-2-(pyridin-3-yl)pyrimidin-4-amine]
–	≤ 100 nM	–	≤ 1000 nM	≤ 1000 nM	Cc1cc(Nc2cc(N3CCN(C)CC3)nc(-c3cccc(C(F)(F)F)c3)n2)n[nH]1 [Compound 101, N-(5-methyl-1H-pyrazol-3-yl)-6-(4-methylpiperazin-1-yl)-2-(3-(trifluoromethyl)phenyl)pyrimidin-4-amine]
≤ 100 nM	≤ 100 nM	–	–	≤ 1000 nM	COCCN(C)c1cc(Nc2cc(C)[nH]n2)nc(-c2cccc(N(C)C)c2)n1 [Compound 119, 2-(3-(dimethylamino)phenyl)-N^4-(2-methoxyethyl)-N^4-methyl-N^6-(5-methyl-1H-pyrazol-3-yl)pyrimidine-4,6-diamine]
≤ 100 nM	≤ 100 nM	–	–	≤ 1000 nM	Cc1cc(Nc2cc(NC3CCOCC3)nc(-c3ccc4c(c3)OCCO4)n2)n[nH]1 [Example 130, 2-(2,3-dihydrobenzo[b][1,4]dioxin-6-yl)-N^4-(5-methyl-1H-pyrazol-3-yl)-N^6-(tetrahydro-2H-pyran-4-yl)pyrimidine-4,6-diamine]
≤ 100 nM	≤ 100 nM	≤ 100 nM	–	–	Cc1cc(Nc2cc(NC3CCOCC3)nc(-c3ccc4c(c3)OCO4)n2)n[nH]1 [Example 132, 2-(benzo[d][1,3]dioxol-5-yl)-N^4-(5-methyl-1H-pyrazol-3-yl)-N^6-(tetrahydro-2H-pyran-4-yl)pyrimidine-4,6-diamine]
≤ 100 nM	≤ 100 nM	≤ 100 nM	–	–	Cc1cc(Nc2cc(N3CCN(C)CC3)nc(-c3cccc4ccccc34)n2)n[nH]1 [Example 134, N-(5-methyl-1H-pyrazol-3-yl)-6-(4-methylpiperazin-1-yl)-2-(naphthalen-1-yl)pyrimidin-4-amine]
≤ 100 nM	≤ 100 nM	≤ 100 nM	–	–	Cc1cc(Nc2cc(N3CCN(C)CC3)nc(-c3ccc4ccccc4c3)n2)n[nH]1 [Example 135, N-(5-methyl-1H-pyrazol-3-yl)-6-(4-methylpiperazin-1-yl)-2-(naphthalen-2-yl)pyrimidin-4-amine]
≤ 100 nM	≤ 100 nM	≤ 100 nM	–	–	Cc1cc(Nc2cc(N3CCN(C)CC3)nc(-c3ccc4c(c3)OCCO4)n2)n[nH]1 [Example 137, 2-(2,3-dihydrobenzo[b][1,4]dioxin-6-yl)-N-(5-methyl-1H-pyrazol-3-yl)-6-(4-methylpiperazin-1-yl)pyrimidin-4-amine]
≤ 100 nM	≤ 100 nM	≤ 100 nM	–	–	Cc1cc(Nc2cc(N3CCN(C)CC3)nc(-c3ccc4c(c3)OCO4)n2)n[nH]1 [Example 139, 2-(benzo[d][1,3]dioxol-5-yl)-N-(5-methyl-1H-pyrazol-3-yl)-6-(4-methylpiperazin-1-yl)pyrimidin-4-amine]
–	≤ 100 nM	–	≤ 1000 nM	≤ 1000 nM	COCCN(C)c1cc(Nc2cc(C)[nH]n2)nc(-c2ccc3c(c2)OCO3)n1 [Example 153, 2-(benzo[d][1,3]dioxol-5-yl)-N^4-(2-methoxyethyl)-N^4-methyl-N^6-(5-methyl-1H-pyrazol-3-yl)pyrimidine-4,6-diamine]
≤ 100 nM	≤ 100 nM	≤ 100 nM	–	–	Cc1cc(Nc2cc(N3CCN(C)CC3)nc(-c3cc4cc(NS(=O)(=O)C5CC5)ccc4o3)n2)n[nH]1 [Example 155, N-(2-(4-(5-methyl-1H-pyrazol-3-ylamino)-6-(4-methylpiperazin-1-yl)pyrimidin-2-yl)benzofuran-5-yl)cyclopropanesulfonamide]
